Assay results: patent US20260234211A1, “POLYPEPTIDE HAVING MODIFIED STRUCTURE AND USE THEREOF” (Guangdong Raynovent Biotech Co., Ltd., priority 2023, published 2026)
Like-named read-outs stand apart in the source and are kept apart here. Numbered stars: 1 amine (or outer) side, 2 acyl side, 3 side chain; on linkers, the order of the positions; unused ones are H or OH. Bridge positions count the residues as written; N and C are the ends. Square brackets hold non-standard residues; d marks the D form. Peptide text beside a SMILES is read from it. X2 = O=C(O)CCCCCCCCCCCCCCCCCCC(=O)N[C@@H](CCC(=O)NCCOCCOCC(=O)N[C@@H](CCC(=O)[*:2])C(=O)[*:1])C(=O)O; αMeL = CC(C)C[C@](C)(N)C(=O)O; Aib = CC(C)(N)C(=O)O

Key:
[1] = Metabolic stability in human kidney S9; format: in vitro ADME
Procedure: The metabolic stability of the compounds in human kidney was evaluated to determine whether the drugs would be degraded by metabolic enzymes in the kidney to affect the efficacies and pharmacokinetics. 1. Relevant solutions were formulated. 2. a) With cofactors (NADPH & UDPGA): NADPH and UDPGA were added during the incubation. […] H2O was added into the culture solution. The final concentration of KS9 Fractions was 1 mg/mL. The mixture was pre-heated at 37° C. for 10 min. […] In this study, 7-hydroxy-coumarin and Raloxifene were used as the positive control. The final concentration of the positive control compounds was 0.2 μM, and the final concentration of the test compound was 1 μM. The culture solution was incubated in water bath at 37° C. 4. At 0.5, 5, 15, 30 and 60 min, volume aliquots were taken from the reaction solution and the reaction was stopped by adding acetonitrile. The samples were centrifuged for 30 min. The supernatant was taken and mixed with ultrapure water for subsequent LC-MS/MS analysis. 5. Data analysis: All calculation was conducted using Microsoft Excel. Peak areas were determined and slope values were calculated based on the extracted ion chromatograms.

[2] = Pharmacokinetic properties in Cynomolgus macaques; conditions: cynomolgus monkey, in vivo, male cynomolgus macaques, plasma; for AUC(0-t): read-out: AUC0-240 h; for AUC(0-inf): read-out: AUCINF; for Cmax: read-out: Cmax; for half-life: read-out: T1/2 (converted); for Tmax: read-out: Tmax
Procedure: To test the pharmacokinetic profiles of the compounds in Cynomolgus macaques.
Non-juvenile male cynomolgus macaques were used for experiment, 3 cynomolgus macaques for each compound. Whole blood was collected at time points of 1 h, 2 h, 4 h, 8 h, 16 h, 24 h, 48 h, 72 h, 120 h, 168 h and 240 h after administration, to prepare plasma. The drug concentration was analyzed by LC-MS/MS method, and the pharmacokinetic parameters were calculated using Phoenix WinNonlin software.

[3] = Human kidney S9 1 mg/mL, +Cofactors (NADPH & UDPGA), 37° C., read-out: in vitro CLint
[4] = Human kidney S9 1 mg/mL, +Cofactors (NADPH & UDPGA), 37° C., read-out: in vitro t1/2

CC[C@H](C)[C@H](NC(=O)[C@H](Cc1ccccc1)NC(=O)[C@H](C)NC(=O)C(C)(C)NC(=O)[C@H](CCC(N)=O)NC(=O)[C@H](C)NC(=O)[C@@H]1CCCCNC(=O)CN(C(=O)COCCOCCNC(=O)CC[C@H](NC(=O)CCCCCCCCCCCCCCCCCCC(=O)O)C(=O)O)CC(=O)NCCCC[C@H](NC(=O)[C@](C)(CC(C)C)NC(=O)[C@@H](NC(=O)[C@H](CO)NC(=O)[C@H](Cc2ccc(O)cc2)NC(=O)[C@H](CC(=O)O)NC(=O)[C@H](CO)NC(=O)[C@@H](NC(=O)[C@H](Cc2ccccc2)NC(=O)[C@@H](NC(=O)CNC(=O)[C@H](CCC(N)=O)NC(=O)C(C)(C)NC(=O)[C@@H](N)Cc2ccc(O)cc2)[C@@H](C)O)[C@@H](C)O)[C@@H](C)CC)C(=O)N[C@@H](CC(=O)O)C(=O)N[C@@H](CCCCN)C(=O)N1)C(=O)N[C@@H](CCC(=O)O)C(=O)N[C@@H](Cc1ccc(O)cc1)C(=O)N[C@@H](CC(C)C)C(=O)N[C@@H](CC(C)C)C(=O)N[C@@H](CCC(=O)O)C(=O)NCC(=O)NCC(=O)N1CCC[C@H]1C(=O)N[C@@H](CO)C(=O)N[C@@H](CO)C(=O)NCC(=O)N[C@@H](C)C(=O)N1CCC[C@H]1C(=O)N1CCC[C@H]1C(=O)N1CCC[C@H]1C(=O)N[C@@H](CO)C(N)=O [Example 21, YAibQGT FTSDY SIα- MeL^1KD K^1KAQAib AFIEY LLEGG PSSGA PPPS-NH2 (SEQ ID NO: 24)]
microsomal CLint at 1 μM [1, 3]: < 3.75 µL/min/mg
half-life at 1 μM [1, 4]: > 3.08 h
AUC(0-t) [2]: 4.6 µM·h
AUC(0-inf) [2]: 5.94 µM·h
Cmax [2]: 31.2 nM
half-life [2]: 105 h
Tmax [2]: 40 h

CC[C@H](C)[C@H](NC(=O)[C@H](Cc1ccccc1)NC(=O)[C@@H]1CCCCNC(=O)CC[C@H](NC(=O)COCCOCCNC(=O)CC[C@H](NC(=O)CCCCCCCCCCCCCCCCCCC(=O)O)C(=O)O)C(=O)NCCCC[C@H](NC(=O)[C@H](CCCCN)NC(=O)[C@H](CC(=O)O)NC(=O)[C@H](CC(C)C)NC(=O)[C@](C)(CC(C)C)NC(=O)[C@@H](NC(=O)[C@H](CO)NC(=O)[C@H](Cc2ccc(O)cc2)NC(=O)[C@H](CC(=O)O)NC(=O)[C@H](CO)NC(=O)[C@@H](NC(=O)[C@H](Cc2ccccc2)NC(=O)[C@@H](NC(=O)CNC(=O)[C@H](CCC(N)=O)NC(=O)C(C)(C)NC(=O)[C@@H](N)Cc2ccc(O)cc2)[C@@H](C)O)[C@@H](C)O)[C@@H](C)CC)C(=O)N[C@@H](C)C(=O)N[C@@H](CCC(N)=O)C(=O)NC(C)(C)C(=O)N1)C(=O)N[C@@H](CCC(=O)O)C(=O)N[C@@H](Cc1ccc(O)cc1)C(=O)N[C@@H](CC(C)C)C(=O)N[C@@H](CC(C)C)C(=O)N[C@@H](CCC(=O)O)C(=O)NCC(=O)NCC(=O)N1CCC[C@H]1C(=O)N[C@@H](CO)C(=O)N[C@@H](CO)C(=O)NCC(=O)N[C@@H](C)C(=O)N1CCC[C@H]1C(=O)N1CCC[C@H]1C(=O)N1CCC[C@H]1C(=O)N[C@@H](CO)C(N)=O [Example 8, YAibQGT FTSDY SIα- MeLLD K^1KAQAib ^1KFIEY LLEGG PSSGA PPPS-NH2 (SEQ ID NO: 1)] (H-Y[Aib]QGTFTSDYSI[αMeL]LDKKAQ[Aib]KFIEYLLEGGPSSGAPPPS-NH2; linker 17-21 via X2 (inferred); N-terminus assumed)
half-life ([1]; human, s9): > 3.08 h
microsomal CLint ([1]; human, s9): < 3.75 µL/min/mg

O=C(c1ccc(OCCN2CCCCC2)cc1)c1c(-c2ccc(O)cc2)sc2cc(O)ccc12 [Raloxifene, reference compound]
half-life at 0.2 μM ([1]; human, s9): 1.56 h
microsomal CLint at 0.2 μM ([1]; human, s9): 7.77 µL/min/mg

CC[C@H](C)[C@H](NC(=O)[C@H](Cc1ccccc1)NC(=O)[C@@H]1CCCCNC(=O)CN(C(=O)[C@@H](N)CCCCNC(=O)[C@@H](N)CCCCNC(=O)CC[C@H](NC(=O)CCCCCCCCCCCCCCCCCCC(=O)O)C(=O)O)CC(=O)NCCCC[C@H](NC(=O)[C@H](CCCCN)NC(=O)[C@H](CC(=O)O)NC(=O)[C@H](CC(C)C)NC(=O)[C@](C)(CC(C)C)NC(=O)[C@@H](NC(=O)[C@H](CO)NC(=O)[C@H](Cc2ccc(O)cc2)NC(=O)[C@H](CC(=O)O)NC(=O)[C@H](CO)NC(=O)[C@@H](NC(=O)[C@H](Cc2ccccc2)NC(=O)[C@@H](NC(=O)CNC(=O)[C@H](CCC(N)=O)NC(=O)C(C)(C)NC(=O)[C@@H](N)Cc2ccc(O)cc2)[C@@H](C)O)[C@@H](C)O)[C@@H](C)CC)C(=O)N[C@@H](C)C(=O)N[C@@H](CCC(N)=O)C(=O)NC(C)(C)C(=O)N1)C(=O)N[C@@H](CCC(=O)O)C(=O)N[C@@H](Cc1ccc(O)cc1)C(=O)N[C@@H](CC(C)C)C(=O)N[C@@H](CC(C)C)C(=O)N[C@@H](CCC(=O)O)C(=O)NCC(=O)NCC(=O)N1CCC[C@H]1C(=O)N[C@@H](CO)C(=O)N[C@@H](CO)C(=O)NCC(=O)N[C@@H](C)C(=O)N1CCC[C@H]1C(=O)N1CCC[C@H]1C(=O)N1CCC[C@H]1C(=O)N[C@@H](CO)C(N)=O [Example 7, YAibQGT FRSDY SIα- MeLLD K^1KAQAib ^1KFIEY LLEGG PSSGA PPPS-NH2 (SEQ ID NO: 1)]
microsomal CLint [1, 3]: < 3.75 µL/min/mg
half-life [1, 4]: > 3.08 h
AUC(0-t) [2]: 3.32 µM·h
AUC(0-inf) [2]: 3.96 µM·h
Cmax [2]: 24.3 nM
half-life [2]: 84.1 h
Tmax [2]: 29.3 h

CC[C@H](C)[C@@H]1NC(=O)[C@H](Cc2ccccc2)NC(=O)[C@H](C)NC(=O)C(C)(C)NC(=O)[C@H](CCC(N)=O)NC(=O)[C@H](C)NC(=O)[C@@H](NC(=O)[C@H](CCCCN)NC(=O)[C@H](CC(=O)O)NC(=O)[C@H](CC(C)C)NC(=O)[C@](C)(CC(C)C)NC(=O)[C@@H](NC(=O)[C@H](CO)NC(=O)[C@H](Cc2ccc(O)cc2)NC(=O)[C@H](CC(=O)O)NC(=O)[C@H](CO)NC(=O)[C@@H](NC(=O)[C@H](Cc2ccccc2)NC(=O)[C@@H](NC(=O)CNC(=O)[C@H](CCC(N)=O)NC(=O)C(C)(C)NC(=O)[C@@H](N)Cc2ccc(O)cc2)[C@@H](C)O)[C@@H](C)O)[C@@H](C)CC)CCCCNC(=O)CN(C(=O)COCCOCCNC(=O)COCCOCCNC(=O)CC[C@H](NC(=O)CCCCCCCCCCCCCCCCCCC(=O)O)C(=O)O)CC(=O)NCCCC[C@@H](C(=O)N[C@@H](Cc2ccc(O)cc2)C(=O)N[C@@H](CC(C)C)C(=O)N[C@@H](CC(C)C)C(=O)N[C@@H](CCC(=O)O)C(=O)NCC(=O)NCC(=O)N2CCC[C@H]2C(=O)N[C@@H](CO)C(=O)N[C@@H](CO)C(=O)NCC(=O)N[C@@H](C)C(=O)N2CCC[C@H]2C(=O)N2CCC[C@H]2C(=O)N2CCC[C@H]2C(=O)N[C@@H](CO)C(N)=O)NC1=O [Example 11, YAibQGT FTSDY SIα- MeLLD K^1KAQAib AFI^1KY LLEGG PSSGA PPPS-NH2 (SEQ ID NO: 17)]
half-life at 1 μM ([1]; human, s9): > 3.08 h
microsomal CLint at 1 μM ([1]; human, s9): < 3.75 µL/min/mg

O=c1ccc2ccc(O)cc2o1 [7-Hydroxy-courmarin, 7-hydroxy-coumarin, reference compound]
half-life at 0.2 μM ([1]; human, s9): 1.69 h
microsomal CLint at 0.2 μM ([1]; human, s9): 6.84 µL/min/mg

CC[C@H](C)[C@H](NC(=O)[C@H](Cc1ccccc1)NC(=O)[C@@H]1CCCCNC(=O)CN(C(=O)COCCOCCNC(=O)CC[C@H](NC(=O)CCCCCCCCCCCCCCCCCCC(=O)O)C(=O)O)CC(=O)NCCCC[C@H](NC(=O)[C@H](CCCCN)NC(=O)[C@H](CC(=O)O)NC(=O)[C@H](CC(C)C)NC(=O)[C@](C)(CC(C)C)NC(=O)[C@@H](NC(=O)[C@H](CO)NC(=O)[C@H](Cc2ccc(O)cc2)NC(=O)[C@H](CC(=O)O)NC(=O)[C@H](CO)NC(=O)[C@@H](NC(=O)[C@H](Cc2ccccc2)NC(=O)[C@@H](NC(=O)CNC(=O)[C@H](CCC(N)=O)NC(=O)C(C)(C)NC(=O)[C@@H](N)Cc2ccc(O)cc2)[C@@H](C)O)[C@@H](C)O)[C@@H](C)CC)C(=O)N[C@@H](C)C(=O)N[C@@H](CCC(N)=O)C(=O)NC(C)(C)C(=O)N1)C(=O)N[C@@H](CCC(=O)O)C(=O)N[C@@H](Cc1ccccc1)C(=O)N[C@@H](CC(C)C)C(=O)N[C@@H](CC(C)C)C(=O)N[C@@H](CCC(=O)O)C(=O)NCC(=O)NCC(=O)N1CCC[C@H]1C(=O)N[C@@H](CO)C(=O)N[C@@H](CO)C(=O)NCC(=O)N[C@@H](C)C(=O)N1CCC[C@H]1C(=O)N1CCC[C@H]1C(=O)N1CCC[C@H]1C(=O)N[C@@H](CO)C(N)=O [Example 9, YAibQGT FTSDY SIα- MeLLD K^1KAQAib ^1KFIEF LLEGG PSSGA PPPS-NH2 (SEQ ID NO: 15)]
AUC(0-t) [2]: 3.23 µM·h
AUC(0-inf) [2]: 3.64 µM·h
Cmax [2]: 30.1 nM
half-life [2]: 77.4 h
Tmax [2]: 29.3 h
